Test results taken from ChEMBL document CHEMBL1157194, “Recent advances in selective alpha1-adrenoreceptor antagonists as antihypertensive agents” (Bioorg Med Chem, 2008).

Experiments:
[1] = Binding affinity to adrenergic alpha1 receptor
[2] = Antagonist activity at adrenergic alpha1 receptor; assay type: functional
[3] = Binding affinity to adrenergic alpha1N receptor
[4] = Binding affinity to adrenergic alpha1H receptor
[5] = Dissociation constant, pKb of the compound; assay type: physicochemical
D(4) dopamine receptor = target: T1, D(4) dopamine receptor (Homo sapiens, UniProt P21917); assay: Binding affinity to human cloned dopamine D4.4 receptor
T1 sequence (P21917 whole entry): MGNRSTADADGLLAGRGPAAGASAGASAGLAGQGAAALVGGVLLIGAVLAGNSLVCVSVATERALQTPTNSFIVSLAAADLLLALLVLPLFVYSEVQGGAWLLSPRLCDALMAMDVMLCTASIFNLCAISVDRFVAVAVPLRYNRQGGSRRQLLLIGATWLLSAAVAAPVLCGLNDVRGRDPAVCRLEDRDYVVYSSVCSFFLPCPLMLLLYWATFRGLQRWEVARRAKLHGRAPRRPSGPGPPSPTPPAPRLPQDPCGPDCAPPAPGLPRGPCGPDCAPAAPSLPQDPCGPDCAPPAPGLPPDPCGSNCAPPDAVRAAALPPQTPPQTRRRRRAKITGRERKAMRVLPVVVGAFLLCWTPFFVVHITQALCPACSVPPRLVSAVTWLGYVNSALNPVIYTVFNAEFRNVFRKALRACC

[6] = Binding affinity to human cloned dopamine D4.2 receptor
[7] = target: 5-hydroxytryptamine receptor 2A (Homo sapiens, UniProt P28223); assay: Binding affinity to 5HT2A
[8] = Binding affinity to human cloned dopamine D4.7 receptor
[9] = target: T2, Alpha-1A adrenergic receptor (Oryctolagus cuniculus, UniProt O02824); assay: Agonist activity at rabbit urethra adrenergic alpha1A receptor; assay type: functional
T2 sequence (O02824 whole entry): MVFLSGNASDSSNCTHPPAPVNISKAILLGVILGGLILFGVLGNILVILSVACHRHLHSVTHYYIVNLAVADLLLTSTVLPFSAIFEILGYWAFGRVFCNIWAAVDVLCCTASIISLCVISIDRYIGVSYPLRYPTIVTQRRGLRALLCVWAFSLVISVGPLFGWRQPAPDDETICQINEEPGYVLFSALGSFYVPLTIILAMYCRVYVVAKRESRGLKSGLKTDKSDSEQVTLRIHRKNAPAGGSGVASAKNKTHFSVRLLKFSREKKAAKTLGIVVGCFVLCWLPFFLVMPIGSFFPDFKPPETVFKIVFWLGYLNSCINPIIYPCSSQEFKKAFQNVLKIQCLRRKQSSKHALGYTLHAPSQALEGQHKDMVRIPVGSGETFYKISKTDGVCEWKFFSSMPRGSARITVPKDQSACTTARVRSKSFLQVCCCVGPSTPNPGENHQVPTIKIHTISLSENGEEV

[10] = target: T3, Alpha-1A adrenergic receptor (Rattus norvegicus) (UniProt P43140); assay: (§1) Antagonist activity at rat spleen adrenergic alpha1A receptor; assay type: functional, tissue-based
T3 sequence (whole entry): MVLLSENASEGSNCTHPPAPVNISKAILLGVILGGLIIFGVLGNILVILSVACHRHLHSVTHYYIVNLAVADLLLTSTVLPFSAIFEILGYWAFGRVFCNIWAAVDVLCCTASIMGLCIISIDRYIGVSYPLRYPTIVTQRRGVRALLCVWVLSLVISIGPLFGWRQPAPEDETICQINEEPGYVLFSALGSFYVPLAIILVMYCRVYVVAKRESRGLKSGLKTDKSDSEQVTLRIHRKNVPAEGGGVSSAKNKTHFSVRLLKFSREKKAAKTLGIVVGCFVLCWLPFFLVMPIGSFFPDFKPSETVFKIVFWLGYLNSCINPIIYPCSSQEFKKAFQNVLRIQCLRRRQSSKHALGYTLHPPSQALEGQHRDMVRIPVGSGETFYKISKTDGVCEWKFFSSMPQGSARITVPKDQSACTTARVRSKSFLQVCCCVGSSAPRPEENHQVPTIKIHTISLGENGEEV

[11] = target: T4, Alpha-1A adrenergic receptor (Rattus norvegicus, UniProt P43140); assay: as §1; assay type: functional, tissue-based; conditions: read-out: pA2 (converted)
T4 sequence (P43140 whole entry): T3 sequence (whole entry)

[12] = target: T3, Alpha-1A adrenergic receptor (Rattus norvegicus); assay: Antagonist activity at rat spleen adrenergic alpha1A receptor relative to phenylephrine; assay type: functional, tissue-based; parameters: scale not given: the % may be the effect or the level left
[13] = target: T5, Alpha-1A adrenergic receptor (Oryctolagus cuniculus) (UniProt O02824); assay: Antagonist activity at rabbit urethra adrenergic alpha1A receptor relative to phenylephrine; assay type: functional; parameters: scale not given: the % may be the effect or the level left
T5 sequence (whole entry): T2 sequence (O02824 whole entry)

Homo sapiens [14] = organism: Homo sapiens; assay: Selectivity for human alpha1A adrenergic receptor over human cloned alpha2A adrenergic receptor
Homo sapiens [15] = organism: Homo sapiens; assay: Selectivity for human alpha1A adrenergic receptor over human cloned Alpha-2C adrenergic receptor
Homo sapiens [16] = organism: Homo sapiens; assay: Selectivity for human alpha1A adrenergic receptor over human cloned alpha2B adrenergic receptor
Rattus norvegicus = organism: Rattus norvegicus; assay: Antagonistic activity at alpha 1-adrenoceptor in rat; assay type: functional, organism-based; conditions: read-out: pA2 (converted)
[17] = target: T6, Alpha-1D adrenergic receptor (Homo sapiens) (UniProt P25100); assay: Antagonist activity at adrenergic Alpha-1D receptor; assay type: functional
T6 sequence (whole entry): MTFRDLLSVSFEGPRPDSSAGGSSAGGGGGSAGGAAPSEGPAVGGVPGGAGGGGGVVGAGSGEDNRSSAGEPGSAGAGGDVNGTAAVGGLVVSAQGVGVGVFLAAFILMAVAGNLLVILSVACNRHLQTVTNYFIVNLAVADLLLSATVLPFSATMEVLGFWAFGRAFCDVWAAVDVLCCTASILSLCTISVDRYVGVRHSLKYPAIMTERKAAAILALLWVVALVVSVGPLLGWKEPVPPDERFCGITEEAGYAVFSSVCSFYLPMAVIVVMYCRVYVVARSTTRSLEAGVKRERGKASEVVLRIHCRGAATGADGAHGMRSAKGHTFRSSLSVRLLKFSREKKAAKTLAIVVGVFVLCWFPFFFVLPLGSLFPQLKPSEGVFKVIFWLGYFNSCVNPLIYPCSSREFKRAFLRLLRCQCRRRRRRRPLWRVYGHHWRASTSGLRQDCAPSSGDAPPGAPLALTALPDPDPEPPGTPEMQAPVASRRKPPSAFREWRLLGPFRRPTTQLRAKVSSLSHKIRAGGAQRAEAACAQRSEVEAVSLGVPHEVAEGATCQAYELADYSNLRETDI

[18] = target: T7, Alpha-1B adrenergic receptor (Homo sapiens) (UniProt P35368); assay: Antagonist activity at adrenergic Alpha-1B receptor; assay type: functional
T7 sequence (whole entry): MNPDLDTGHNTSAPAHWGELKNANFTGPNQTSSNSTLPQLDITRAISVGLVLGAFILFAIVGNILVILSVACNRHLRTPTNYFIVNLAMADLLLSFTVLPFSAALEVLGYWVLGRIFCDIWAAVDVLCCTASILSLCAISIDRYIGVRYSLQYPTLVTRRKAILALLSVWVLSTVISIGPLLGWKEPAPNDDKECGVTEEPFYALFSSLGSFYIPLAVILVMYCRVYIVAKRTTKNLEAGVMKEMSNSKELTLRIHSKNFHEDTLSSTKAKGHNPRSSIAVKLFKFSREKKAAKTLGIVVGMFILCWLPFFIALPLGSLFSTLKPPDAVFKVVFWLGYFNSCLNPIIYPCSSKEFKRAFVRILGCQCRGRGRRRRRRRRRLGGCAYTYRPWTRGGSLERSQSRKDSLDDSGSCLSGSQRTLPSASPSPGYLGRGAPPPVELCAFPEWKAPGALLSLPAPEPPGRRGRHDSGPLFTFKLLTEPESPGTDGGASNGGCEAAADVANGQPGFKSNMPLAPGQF

[19] = Binding affinity to adrenergic alpha1L receptor
D(3) dopamine receptor = D(3) dopamine receptor (Homo sapiens, UniProt P35462); assay: Binding affinity to dopamine D3 receptor
[20] = Binding affinity to 5HT2
[21] = target: T8, Alpha-1A adrenergic receptor (Homo sapiens, UniProt P35348); assay: Binding affinity to adrenergic alpha1A receptor
T8 sequence (P35348 whole entry): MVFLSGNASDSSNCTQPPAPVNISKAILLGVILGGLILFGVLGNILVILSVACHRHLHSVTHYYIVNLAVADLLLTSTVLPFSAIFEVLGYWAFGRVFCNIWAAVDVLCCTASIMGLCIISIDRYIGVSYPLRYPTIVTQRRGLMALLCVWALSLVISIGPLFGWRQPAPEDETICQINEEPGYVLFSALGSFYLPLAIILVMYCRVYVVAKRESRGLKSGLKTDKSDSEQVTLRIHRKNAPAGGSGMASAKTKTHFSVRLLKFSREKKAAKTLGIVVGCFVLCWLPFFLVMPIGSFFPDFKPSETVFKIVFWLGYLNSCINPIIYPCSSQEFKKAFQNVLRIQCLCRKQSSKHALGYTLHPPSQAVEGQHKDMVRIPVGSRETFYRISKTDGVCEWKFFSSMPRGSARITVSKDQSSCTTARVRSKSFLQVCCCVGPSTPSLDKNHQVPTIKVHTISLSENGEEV

[22] = target: T9, 5-hydroxytryptamine receptor 1A (Homo sapiens, UniProt P08908); assay: Binding affinity to 5HT1A
T9 sequence (P08908 whole entry): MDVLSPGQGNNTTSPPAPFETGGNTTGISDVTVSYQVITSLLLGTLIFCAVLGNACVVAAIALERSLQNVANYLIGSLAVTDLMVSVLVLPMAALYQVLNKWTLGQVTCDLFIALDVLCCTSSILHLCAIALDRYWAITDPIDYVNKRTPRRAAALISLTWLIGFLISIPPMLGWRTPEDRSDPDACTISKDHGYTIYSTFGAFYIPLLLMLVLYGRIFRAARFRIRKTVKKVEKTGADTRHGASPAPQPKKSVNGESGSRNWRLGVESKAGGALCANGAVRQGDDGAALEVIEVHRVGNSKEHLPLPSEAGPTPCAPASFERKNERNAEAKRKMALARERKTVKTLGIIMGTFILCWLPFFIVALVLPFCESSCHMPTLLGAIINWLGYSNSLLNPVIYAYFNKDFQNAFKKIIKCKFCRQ

[23] = target: 5-hydroxytryptamine receptor 1B (Homo sapiens, UniProt P28222); assay: Binding affinity to 5HT1B
D(2) dopamine receptor = D(2) dopamine receptor (Homo sapiens, UniProt P14416); assay: Binding affinity to dopamine D2 receptor
[24] = Binding affinity to adrenergic alpha2 receptor
[25] = Selectivity for alpha2 adrenergic receptor over alpha1 adrenergic receptor

Chain of D(2) dopamine receptor (P14416 whole entry): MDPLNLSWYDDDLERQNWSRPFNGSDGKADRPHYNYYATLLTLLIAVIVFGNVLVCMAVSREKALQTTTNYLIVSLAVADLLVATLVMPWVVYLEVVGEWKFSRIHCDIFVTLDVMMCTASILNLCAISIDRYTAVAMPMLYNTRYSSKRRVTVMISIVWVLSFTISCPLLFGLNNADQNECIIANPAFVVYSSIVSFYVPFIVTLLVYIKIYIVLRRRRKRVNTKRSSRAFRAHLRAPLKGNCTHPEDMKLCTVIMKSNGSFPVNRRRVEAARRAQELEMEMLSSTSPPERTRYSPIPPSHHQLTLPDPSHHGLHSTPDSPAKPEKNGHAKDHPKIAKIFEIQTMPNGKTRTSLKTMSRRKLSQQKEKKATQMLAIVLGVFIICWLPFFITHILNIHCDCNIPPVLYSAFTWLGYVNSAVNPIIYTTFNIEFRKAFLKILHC
Chain of D(3) dopamine receptor (P35462 whole entry): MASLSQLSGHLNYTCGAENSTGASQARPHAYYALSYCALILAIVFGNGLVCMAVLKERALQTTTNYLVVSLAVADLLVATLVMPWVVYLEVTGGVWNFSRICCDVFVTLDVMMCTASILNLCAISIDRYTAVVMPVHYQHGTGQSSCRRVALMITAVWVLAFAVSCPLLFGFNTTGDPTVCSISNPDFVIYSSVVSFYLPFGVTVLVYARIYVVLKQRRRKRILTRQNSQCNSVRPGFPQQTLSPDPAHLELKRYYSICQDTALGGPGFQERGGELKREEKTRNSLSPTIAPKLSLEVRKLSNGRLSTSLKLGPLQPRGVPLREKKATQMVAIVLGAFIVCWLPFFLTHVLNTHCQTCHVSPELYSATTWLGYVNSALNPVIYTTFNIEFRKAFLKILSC
Chain of 5-hydroxytryptamine receptor 1B (P28222 whole entry): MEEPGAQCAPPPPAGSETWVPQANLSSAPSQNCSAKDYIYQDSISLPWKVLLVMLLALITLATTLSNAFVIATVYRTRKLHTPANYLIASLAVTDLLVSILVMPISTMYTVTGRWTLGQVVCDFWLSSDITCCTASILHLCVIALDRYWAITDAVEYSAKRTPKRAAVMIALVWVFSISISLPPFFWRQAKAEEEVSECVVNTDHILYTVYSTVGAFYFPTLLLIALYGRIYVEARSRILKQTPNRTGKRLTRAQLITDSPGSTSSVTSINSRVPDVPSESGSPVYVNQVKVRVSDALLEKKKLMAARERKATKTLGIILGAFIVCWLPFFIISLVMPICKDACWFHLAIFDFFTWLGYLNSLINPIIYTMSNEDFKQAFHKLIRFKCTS
Chain of 5-hydroxytryptamine receptor 2A (P28223 whole entry): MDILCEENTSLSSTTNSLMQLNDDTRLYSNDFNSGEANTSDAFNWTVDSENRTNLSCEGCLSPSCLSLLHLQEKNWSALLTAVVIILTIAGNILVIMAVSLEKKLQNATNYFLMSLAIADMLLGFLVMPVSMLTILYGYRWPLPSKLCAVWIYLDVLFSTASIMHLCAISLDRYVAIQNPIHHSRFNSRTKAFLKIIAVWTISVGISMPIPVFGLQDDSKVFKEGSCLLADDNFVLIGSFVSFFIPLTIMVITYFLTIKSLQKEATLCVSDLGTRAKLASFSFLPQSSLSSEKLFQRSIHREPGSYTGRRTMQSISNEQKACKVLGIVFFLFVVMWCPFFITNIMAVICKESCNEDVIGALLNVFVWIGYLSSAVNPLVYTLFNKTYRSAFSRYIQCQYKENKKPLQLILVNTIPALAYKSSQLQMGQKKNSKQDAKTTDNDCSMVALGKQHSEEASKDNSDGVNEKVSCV

## COc1cccc(OC)c1OCCNCC1COc2ccccc2O1 (configuration not stated)
[1]
  Ki: 0.54 nM

## COc1ccccc1N1CCN(CCNC(=O)c2ccco2)CC1.Cl
[2]
  pA2: 9.12

## COc1ccc(Cl)cc1N1CCN(CCNC(=O)c2ccco2)CC1.Cl
[2]
  pA2: 8.56

## COC(=O)[C@@H]1[C@H]2C[C@H]3c4[nH]c5ccccc5c4CCN3C[C@@H]2CC[C@@H]1O
[3]
  Kb: < 100 nM
[4]
  Kb: > 300 nM

## COc1ccccc1OCCN1CCN(c2ccn[nH]c2=O)CC1
[5]
  pKb: 6.18

## Nc1nc(-c2ccc(F)cc2)c([C@@H]2CCN(CCCC(=O)c3ccc(F)cc3)C2)s1
D(4) dopamine receptor
  Ki: 0.55 nM
[6]
  Ki: 2.54 nM
[7]
  Ki: 1.92 nM
[1]; read-out: Ki
  Ki: 1.4 nM
[8]
  Ki: 0.54 nM

## NC(=O)CN(CCc1ccccc1)C(=O)CN(C(=O)CNCCc1ccc(O)cc1)c1ccc(-c2ccccc2)cc1
[1]; read-out: Ki
  Ki: 0.32 nM

## CN1CCN(C2=Nc3cc(Cl)ccc3Nc3ccccc32)CC1 [CLOZAPINE]
[1]; read-out: Ki
  Ki: 1.4 nM

## NC(=O)CN(CCc1ccc(-c2ccccc2)cc1)C(=O)CN(C(=O)CNCCc1ccc(O)cc1)c1ccc(-c2ccccc2)cc1
[1]; read-out: Ki
  Ki: 310 nM

## CCS(=O)(=O)Nc1cccc(Cc2c[nH]cn2)c1
[9]
  EC50: 60 nM
[10]
  pD2: 6.16
[11]
  Kb: 3980 nM
[12]
  Activity: 11%
[13]
  Activity: 80%

## COC(=O)C1=C(C)NC(C)=C(C(=O)NCCCN2CCC(c3ccccc3)(c3ccccc3)CC2)C1c1ccc([N+](=O)[O-])cc1 (configuration not stated)
Homo sapiens [14]
  Selectivity ratio: > 1000
Homo sapiens [15]
  Selectivity ratio: > 1000
Homo sapiens [16]
  Selectivity ratio: > 1000

## Cc1cc(C)c2c(N)nc(N3CCN(C(=O)c4ccco4)CC3)nc2n1
Rattus norvegicus
  Kb: 15.8 nM

## COc1cccc(N2CCN(CCNC(=O)c3ccco3)CC2)c1.Cl
[2]
  pA2: 8.56

## O=C(CCCN1CCC(O)(c2ccc(Cl)cc2)CC1)c1ccc(F)cc1 [HALOPERIDOL]
[1]; read-out: Ki
  Ki: 1 nM

## O=C1NCCN1CCN1CCC(c2cn(-c3ccc(F)cc3)c3ccc(Cl)cc23)CC1
[17]
  Activity: 9 nM
[18]
  Activity: 3.2 nM

## COc1cc2nc(N3CCN(C(=O)c4ccco4)CC3)nc(N)c2cc1OC [PRAZOSIN]
[19]
  Kb: > 2 nM
[3]
  Kb: > 2 nM
[1]; read-out: Ki
  Ki: 0.32 nM
Rattus norvegicus
  Kb: 10 nM
[4]
  Kb: < 1 nM

## CC(C)Oc1ccccc1N1CCN(Cc2cccc(C(=O)N3CCCCC3)c2)CC1 [MAZAPERTINE]
D(3) dopamine receptor
  Ki: < 4 nM
[20]
  Ki: 165 nM
[1]; read-out: Ki
  Ki: < 4 nM
[21]
  Ki: 0.02 nM
[22]
  Ki: < 4 nM
[23]
  Ki: 2880 nM
D(2) dopamine receptor
  Ki: < 4 nM
[24]
  Ki: 17 nM

## NC(=O)CN(CCc1ccccc1)C(=O)CN(C(=O)CNCCc1ccc(O)cc1)c1ccc(Oc2ccccc2)cc1
[1]; read-out: Ki
  Ki: 140 nM

## COc1ccccc1OCCN1CCN(c2ccc(=O)n(Cn3nc(N4CCN(CCOc5ccccc5OC)CC4)ccc3=O)n2)CC1
[25]
  Selectivity ratio: > 100
